From patent US7713994B2 (Wyeth LLC, priority 2005, dated 2010)
Where two headings read alike, the source gives them in different places.

Legend:
[1] = tested on: MCF-7; experiment: Cytotoxicity assay (SRB), MCF-7; type: cell-based; conditions: Homo sapiens, MCF7, 72 h, read-out: In Vitro Cellular Activity IC50 MCF-7
Description: (§1) BT474, HCT-116, LoVo and MCF-7 were maintained under 7% CO2 in RPMI 1640 medium supplemented with 10% fetal bovine serum and 50 µg/ml gentamicin.
(§2) Cells were plated in 96-well microtiter dishes (12000 cells/well for BT474, 4000 cells/well for HCT-116, 6000 cells/well for LoVo and 6000 cells/well for MCF-7) in RPMI 1640 medium containing 5% fetal bovine serum and 50 µg/ml gentamicin. The cells were allowed to incubate overnight at 37° C., 7% CO2. Compound dilutions were prepared using the same medium. HCT-116, LoVo and MCF-7 cells were cultured for three days and BT474 cells were cultured for 6 days, in the presence of each compound dilution. Untreated cells were included as controls. The percentage of surviving cells was determined using a protein binding dye (sulforhodamineB, SRB) assay. Cellular protein was precipitated in each well by the addition of 0.05 ml of 50% cold trichloroacetic acid (TCA). After 1 hour, the plates were washed extensively in dH2O and dried. The sulforhodamineB dye solution (0.08 mL of 0.4% SRB in 1% acetic acid) was added to each well, kept at room temperature for ten minutes, then washed in 1% acetic acid and dried. The dye was dissolved in 10 mM Tris-HCl (150 uL) and the absorbency read at 540 nm.

[2] = tested on: LoVo; experiment: Cytotoxicity assay (SRB), LoVo; type: cell-based; conditions: Homo sapiens, LoVo, 72 h, read-out: In Vitro Cellular Activity IC50 LOVO
Description: as §1, §2

[3] = molecular target: T1, cyclin D1/cdk 4 enzyme (Homo sapiens, UniProt P11802); experiment: CDK4 ELISA kinase assay (phospho-Rb ser 795 detection); type: biochemical; conditions: In Vitro Enzyme Assay, cyclin D1/cdk 4, read-out: CDK4 IC50
T1 construct: made in house; host or cells: Sf9 insect cells, recombinant baculovirus
Method in brief: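 GST-Rb C-terminal fragment coated on wells; kinase reaction: 200 μM ATP, 0.5 mg/ml BSA, HEPES pH 7.5, 10 mM MgCl2, baculovirus/Sf9 cyclin-CDK, 30° C, 1 h. Readout anti-phospho-Rb Ser795, HRP, TMB, A450. Test compound 10 ug/ml final.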

[4] = tested on: BT474; experiment: Cytotoxicity assay (SRB), BT474; type: cell-based; conditions: Homo sapiens, BT-474, 144 h, read-out: In Vitro Cellular Activity IC50 BT474
Description: as §1, §2

[5] = tested on: HCT-116; experiment: Cytotoxicity assay (SRB), HCT-116; type: cell-based; conditions: Homo sapiens, HCT-116, 72 h, read-out: In Vitro Cellular Activity IC50 HCT116
Description: as §1, §2

T1 sequence (P11802 whole entry, species assumed): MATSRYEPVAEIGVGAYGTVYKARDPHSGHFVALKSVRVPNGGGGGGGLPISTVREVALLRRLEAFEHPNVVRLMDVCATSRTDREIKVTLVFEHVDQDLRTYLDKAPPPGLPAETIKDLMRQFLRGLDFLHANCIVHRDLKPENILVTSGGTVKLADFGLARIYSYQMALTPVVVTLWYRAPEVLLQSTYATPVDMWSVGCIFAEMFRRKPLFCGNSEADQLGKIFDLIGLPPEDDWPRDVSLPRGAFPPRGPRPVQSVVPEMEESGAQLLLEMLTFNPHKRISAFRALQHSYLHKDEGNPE
T1 sequence (P24385 whole entry partner, species assumed): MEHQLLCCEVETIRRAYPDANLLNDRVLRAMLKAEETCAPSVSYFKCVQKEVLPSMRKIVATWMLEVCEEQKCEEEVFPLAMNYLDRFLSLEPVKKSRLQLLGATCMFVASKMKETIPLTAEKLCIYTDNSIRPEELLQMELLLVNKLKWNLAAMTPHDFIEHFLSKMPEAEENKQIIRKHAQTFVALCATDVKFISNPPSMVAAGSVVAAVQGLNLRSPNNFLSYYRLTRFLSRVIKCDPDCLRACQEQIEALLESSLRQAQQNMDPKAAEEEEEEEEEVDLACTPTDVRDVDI

Structure (SMILES)	IC50 ([1]; MCF-7 cells, 3 days, SRB)	IC50 ([2]; LoVo cells, 3 days, SRB)	IC50 ([4]; BT474 cells, 6 days, SRB)	IC50 ([5]; HCT116 cells, 3 days, SRB)	IC50 ([1]; MCF-7 cells, SRB, three days)	IC50 ([2]; LoVo cells, SRB, three days)	IC50 ([4]; BT474 cells, SRB, 6 days)	IC50 ([5]; HCT116 cells, SRB, three days)	also measured
CN1CCN(c2ccc(NC=C3C(=O)NC(=O)c4ccc(C=CCn5ccnc5)cc43)cc2)CC1 [Example 679, 6-(3-Imidazol-1-yl-propenyl)-4-{[4-(4-methyl-piperazin-1-yl)-phenylamino]-methylene}-4H-isoquinoline-1,3-dione]	9.2 µM	6.9 µM	15.5 µM	6.4 µM					IC50 [3]: 4.9 µM
CN1CCN(c2ccc(NC=C3C(=O)NC(=O)c4ccc(C=Cc5ccc(N)cc5)cc43)cc2)CC1 [Example 725, 6-[2-(4-Amino-phenyl)-vinyl]-4-{[4-(4-methyl-piperazin-1-yl)-phenylamino]-methylene}-4H-isoquinoline-1,3-dione]	29.3 µM	29.9 µM	19.5 µM	8 µM					IC50 [3]: 2.9 µM
NS(=O)(=O)c1ccc(CNC=C2C(=O)NC(=O)c3ccc(C=Cc4ccccc4)cc32)cc1 [Example 654, 4-{[(1,3-Dioxo-6-styryl-2,3-dihydro-1H-isoquinolin-4-ylidenemethyl)-amino]-methyl}-benzenesulfonamide]	10.7 µM	13.1 µM	3.1 µM	2.4 µM					IC50 [3]: 2 µM
COc1cccc(-c2ccc3c(c2)C(=CNCc2ccc(S(N)(=O)=O)cc2)C(=O)NC3=O)c1 [Example 737, 4-({[6-(3-Methoxy-phenyl)-1,3-dioxo-2,3-dihydro-1H-isoquinolin-4-ylidenemethyl]-amino}-methyl)-benzenesulfonamide]	12.7 µM	15.3 µM	> 50 µM	17.7 µM					IC50 [3]: 6 µM
COc1ccc(CN/C=C2\C(=O)N(C(C)=O)N(C(C)=O)c3ccccc32)cc1O [Example 167, (4Z)-1,2-Diacetyl-4-{[(3-hydroxy-4-methoxybenzyl)amino]methylene}-1,4-dihydrocinnolin-3(2H)-one]					13 µM	12 µM	9.6 µM	11 µM	
CN1CCN(c2ccc(N/C=C3\C(=O)NC(C)(C)c4ccc(-c5ccoc5)cc43)cc2)CC1 [Example 458, 6-Furan-3-yl-1,1-dimethyl-4-{[4-(4-methyl-piperazin-1-yl)-phenylamino]-methylene}-1,4-dihydro-2H-isoquinolin-3-one]	4.2 µM	1.2 µM	3.5 µM	2.7 µM					
CN1CCN(c2ccc(N/C=C3\C(=O)NC(C)(C)c4ccc(Br)cc43)cc2)CC1 [Example 452, 6-Bromo-1,1-dimethyl-4-{[4-(4-methyl-piperazin-1-yl)-phenylamino]-methylene}-1,4-dihydro-2H-isoquinolin-3-one]	3.3 µM	1.5 µM	9.3 µM	3.1 µM					
COc1ccc(CN/C(C)=C2\C(=O)NC(=O)CC2c2ccccc2)cc1O (stereo not shown) [Example 140, (3Z)-3-{1-[(3-hydroxy-4-methoxybenzyl)amino]ethylidene}-4-phenylpiperidine-2,6-dione]					> 50 µM	> 50 µM	30 µM	> 50 µM	
O=C1NCc2ccccc2C1=CNc1cccc(O)c1 [Example 859, 4-[(3-Hydroxy-phenylamino)-methylene]-1,4-dihydro-2H-isoquinolin-3-one]	20.6 µM	40 µM	31.2 µM	40.4 µM					
CC(C)(C)OC(=O)N1CCCC1c1ccc(N/C=C2\C(=O)NC(=O)c3ccc(I)cc32)cc1 (stereo not shown) [Example 461, 2-{4-[(6-Iodo-1,3-dioxo-2,3-dihydro-1H-isoquinolin-4-ylidenemethyl)-amino]-phenyl}-pyrrolidine-1-carboxylic acid tert-butyl ester]	23.3 µM	24.1 µM	7.7 µM	22.8 µM					
O=C1NC(=O)c2ccc(Br)cc2C1=CNc1ccc(-c2ccncc2)cc1 [Example 329, 6-Bromo-4-[(4-pyridin-4-yl-phenylamino)-methylene]-4H-isoquinoline-1,3-dione]					14 µM	30 µM	18.5 µM	4.7 µM	
CCCCN(C)CCN(C)c1ccc(NC=C2C(=O)NC(=O)c3ccc(Br)cc32)cc1 (stereo in doubt) [Example 866, (4Z)-6-Bromo-4-[({4-[{2-[butyl(methyl)amino]ethyl}(methyl)amino]phenyl}amino)methylene]isoquinoline-1,3(2H,4H)-dione]	3.6 µM	4.7 µM	6.5 µM	2.5 µM					
CC(C)(C)OC(=O)N1CCN(c2ccc(N/C=C3\C(=O)NC(=O)c4ccc(I)cc43)cn2)CC1 [Example 409, tert-Butyl 4-(5-{[(Z)-(6-iodo-1,3-dioxo-2,3-dihydroisoquinolin-4(1H)-ylidene)methyl]amino}pyridin-2-yl)piperazine-1-carboxylate]	36.6 µM	6.4 µM	41.6 µM	25.6 µM					
COc1cnc(CN/C=C2\C(=O)NC(=O)c3ccc(I)cc32)nc1O [Example 479, 4-{[(4-Hydroxy-5-methoxy-pyrimidin-2-ylmethyl)-amino]-methylene}-6-iodo-4H-isoquinoline-1,3-dione]	> 50 µM	> 50 µM	43 µM	> 50 µM					
O=C1NC(=O)c2ccc(Br)cc2/C1=C/NCc1ccccc1O [Example 174, (4Z)-6-Bromo-4-{[(2-hydroxybenzyl)amino]methylene}isoquinoline-1,3(2H,4H)-dione]					50 µM	35 µM	30 µM	19 µM	
O=C1NC(=O)c2ccc(Br)cc2/C1=C/Nc1ccc2ncccc2c1 [Example 271, (4Z)-6-Bromo-4-[(quinolin-6-ylamino)methylene]isoquinoline-1,3(2H,4H)-dione]					39 µM	> 50 µM	32 µM	46 µM	
CN1C(=O)/C(=C\Nc2ccc(CN3CCCCC3)cc2)c2ccccc2C1=O [Example 49, (4Z)-2-Methyl-4-{[(4-piperidin-1-ylmethyl)phenyl]amino}methyleneisoquinoline-1,3(2H,4H)-dione]									IC50 [1]: 13 µM; IC50 [2]: 11.5 µM; IC50 [4]: 6.85 µM; IC50 [5]: 5.5 µM
CN1CCN(c2ccc(N/C=C3\C(=O)NCc4ccc(Br)cc43)cc2)CC1 [Example 223, (4Z)-6-Bromo-4-({[4-(4-methylpiperazin-1-yl)phenyl]amino}methylene)-1,4-dihydroisoquinolin-3(2H)-one]					3.2 µM	2.8 µM	8.7 µM	4.1 µM	
CCCCN(C)CCN(C)c1ccc(NC=C2C(=O)NC(=O)c3ccc(Br)cc32)cc1 (stereo in doubt) [Example 257, (4Z)-6-Bromo-4-[({4-[{2-[butyl(methyl)amino]ethyl}(methyl)amino]phenyl}amino)methylene]isoquinoline-1,3(2H,4H)-dione]					3.6 µM	4.7 µM	6.5 µM	2.5 µM	
O=C1NCc2cc(Cl)ccc2C1=CNc1cccc(O)c1 [Example 856, 7-Chloro-4-[(3-hydroxy-phenylamino)-methylene]-1,4-dihydro-2H-isoquinolin-3-one]	3.8 µM	13.5 µM	5.6 µM	12.2 µM					
O=C1NC(=O)c2ccc(Br)cc2/C1=C/NCc1ccc2cc[nH]c2c1 [Example 129, (4Z)-6-Bromo-4-{[(1H-indol-6-ylmethyl)amino]methylene}isoquinoline-1,3(2H,4H)-dione]					39 µM	> 50 µM	30 µM	26 µM	
